Test results: the NIST ThermoML archive (doi:10.1016/j.fluid.2017.11.013)
“And” between values parts separate entries of the source, which are not always exact repeats. Equal values may be shown once.

Conditions: Coaxial cylinder method

C=C [ethene]
Conditions	thermal conductivity
283.47 K, 101 kPa, Gas	0.01865 W/m/K
283.47 K, 4620 kPa, Fluid (supercritical or subcritical phases)	0.03417 W/m/K
283.47 K, 4770 kPa, Fluid (supercritical or subcritical phases)	0.03732 W/m/K
283.47 K, 4910 kPa, Fluid (supercritical or subcritical phases)	0.04251 W/m/K
283.47 K, 4960 kPa, Fluid (supercritical or subcritical phases)	0.04566 W/m/K
283.47 K, 5050 kPa, Fluid (supercritical or subcritical phases)	0.05593 W/m/K
283.47 K, 5090 kPa, Fluid (supercritical or subcritical phases)	0.06391 W/m/K
283.47 K, 5120 kPa, Fluid (supercritical or subcritical phases)	0.07425 W/m/K
283.47 K, 5140 kPa, Fluid (supercritical or subcritical phases)	0.09013 W/m/K
283.47 K, 5150 kPa, Fluid (supercritical or subcritical phases)	0.1049 W/m/K and 0.1032 W/m/K
283.47 K, 5160 kPa, Fluid (supercritical or subcritical phases)	0.1241 W/m/K
283.47 K, 5170 kPa, Fluid (supercritical or subcritical phases)	0.1339 W/m/K
283.47 K, 5180 kPa, Fluid (supercritical or subcritical phases)	0.1143 W/m/K
283.47 K, 5190 kPa, Fluid (supercritical or subcritical phases)	0.09843 W/m/K
283.47 K, 5200 kPa, Fluid (supercritical or subcritical phases)	0.09006 W/m/K and 0.0888 W/m/K
283.47 K, 5210 kPa, Fluid (supercritical or subcritical phases)	0.08522 W/m/K
283.47 K, 5220 kPa, Fluid (supercritical or subcritical phases)	0.08191 W/m/K
283.47 K, 5230 kPa, Fluid (supercritical or subcritical phases)	0.07984 W/m/K
283.47 K, 5240 kPa, Fluid (supercritical or subcritical phases)	0.07787 W/m/K
283.47 K, 5250 kPa, Fluid (supercritical or subcritical phases)	0.076 W/m/K
283.47 K, 5290 kPa, Fluid (supercritical or subcritical phases)	0.07419 W/m/K
283.47 K, 5300 kPa, Fluid (supercritical or subcritical phases)	0.07248 W/m/K
283.47 K, 5370 kPa, Fluid (supercritical or subcritical phases)	0.07203 W/m/K
283.47 K, 5390 kPa, Fluid (supercritical or subcritical phases)	0.07122 W/m/K
283.47 K, 5440 kPa, Fluid (supercritical or subcritical phases)	0.06948 W/m/K
283.47 K, 5480 kPa, Fluid (supercritical or subcritical phases)	0.06848 W/m/K
283.47 K, 5540 kPa, Fluid (supercritical or subcritical phases)	0.06774 W/m/K
283.47 K, 5730 kPa, Fluid (supercritical or subcritical phases)	0.06774 W/m/K
283.47 K, 5820 kPa, Fluid (supercritical or subcritical phases)	0.06848 W/m/K
283.47 K, 5930 kPa, Fluid (supercritical or subcritical phases)	0.06847 W/m/K
283.47 K, 6220 kPa, Fluid (supercritical or subcritical phases)	0.07041 W/m/K
283.47 K, 6490 kPa, Fluid (supercritical or subcritical phases)	0.07152 W/m/K
283.47 K, 6720 kPa, Fluid (supercritical or subcritical phases)	0.07259 W/m/K
283.47 K, 6980 kPa, Fluid (supercritical or subcritical phases)	0.07316 W/m/K
283.47 K, 7060 kPa, Fluid (supercritical or subcritical phases)	0.07329 W/m/K
283.47 K, 7200 kPa, Fluid (supercritical or subcritical phases)	0.07345 W/m/K
283.47 K, 7610 kPa, Fluid (supercritical or subcritical phases)	0.07519 W/m/K
283.47 K, 8250 kPa, Fluid (supercritical or subcritical phases)	0.07664 W/m/K
283.47 K, 8910 kPa, Fluid (supercritical or subcritical phases)	0.07874 W/m/K
283.96 K, 101 kPa, Gas	0.01869 W/m/K
283.96 K, 3380 kPa, Fluid (supercritical or subcritical phases)	0.02528 W/m/K
283.96 K, 3960 kPa, Fluid (supercritical or subcritical phases)	0.02767 W/m/K
283.96 K, 4620 kPa, Fluid (supercritical or subcritical phases)	0.03396 W/m/K
283.96 K, 4970 kPa, Fluid (supercritical or subcritical phases)	0.04334 W/m/K
283.96 K, 5050 kPa, Fluid (supercritical or subcritical phases)	0.04855 W/m/K
283.96 K, 5090 kPa, Fluid (supercritical or subcritical phases)	0.05262 W/m/K
283.96 K, 5110 kPa, Fluid (supercritical or subcritical phases)	0.05631 W/m/K
283.96 K, 5120 kPa, Fluid (supercritical or subcritical phases)	0.05987 W/m/K
283.96 K, 5150 kPa, Fluid (supercritical or subcritical phases)	0.06832 W/m/K
283.96 K, 5190 kPa, Fluid (supercritical or subcritical phases)	0.08914 W/m/K
283.96 K, 5200 kPa, Fluid (supercritical or subcritical phases)	0.1005 W/m/K
283.96 K, 5210 kPa, Fluid (supercritical or subcritical phases)	0.11 W/m/K
283.96 K, 5220 kPa, Fluid (supercritical or subcritical phases)	0.1162 W/m/K
283.96 K, 5230 kPa, Fluid (supercritical or subcritical phases)	0.1119 W/m/K
283.96 K, 5240 kPa, Fluid (supercritical or subcritical phases)	0.1008 W/m/K
283.96 K, 5260 kPa, Fluid (supercritical or subcritical phases)	0.08675 W/m/K
283.96 K, 5270 kPa, Fluid (supercritical or subcritical phases)	0.08189 W/m/K
283.96 K, 5290 kPa, Fluid (supercritical or subcritical phases)	0.0783 W/m/K
283.96 K, 5300 kPa, Fluid (supercritical or subcritical phases)	0.07641 W/m/K
283.96 K, 5340 kPa, Fluid (supercritical or subcritical phases)	0.07293 W/m/K
283.96 K, 5400 kPa, Fluid (supercritical or subcritical phases)	0.07163 W/m/K
283.96 K, 5500 kPa, Fluid (supercritical or subcritical phases)	0.06977 W/m/K
283.96 K, 5590 kPa, Fluid (supercritical or subcritical phases)	0.06886 W/m/K
283.96 K, 5740 kPa, Fluid (supercritical or subcritical phases)	0.06796 W/m/K
283.96 K, 5920 kPa, Fluid (supercritical or subcritical phases)	0.06854 W/m/K
283.96 K, 6140 kPa, Fluid (supercritical or subcritical phases)	0.06972 W/m/K
283.96 K, 6310 kPa, Fluid (supercritical or subcritical phases)	0.0703 W/m/K
283.96 K, 6530 kPa, Fluid (supercritical or subcritical phases)	0.0709 W/m/K
283.96 K, 6710 kPa, Fluid (supercritical or subcritical phases)	0.07122 W/m/K
283.96 K, 7100 kPa, Fluid (supercritical or subcritical phases)	0.07249 W/m/K
284.89 K, 101 kPa, Gas	0.01877 W/m/K
284.89 K, 680 kPa, Fluid (supercritical or subcritical phases)	0.02012 W/m/K
284.89 K, 1170 kPa, Fluid (supercritical or subcritical phases)	0.02064 W/m/K
284.89 K, 2430 kPa, Fluid (supercritical or subcritical phases)	0.02241 W/m/K
284.89 K, 3520 kPa, Fluid (supercritical or subcritical phases)	0.02591 W/m/K
284.89 K, 4330 kPa, Fluid (supercritical or subcritical phases)	0.03024 W/m/K
284.89 K, 4740 kPa, Fluid (supercritical or subcritical phases)	0.03518 W/m/K
284.89 K, 4900 kPa, Fluid (supercritical or subcritical phases)	0.03781 W/m/K
284.89 K, 5030 kPa, Fluid (supercritical or subcritical phases)	0.04219 W/m/K
284.89 K, 5100 kPa, Fluid (supercritical or subcritical phases)	0.04581 W/m/K
284.89 K, 5160 kPa, Fluid (supercritical or subcritical phases)	0.05257 W/m/K
284.89 K, 5200 kPa, Fluid (supercritical or subcritical phases)	0.05764 W/m/K
284.89 K, 5240 kPa, Fluid (supercritical or subcritical phases)	0.0653 W/m/K
284.89 K, 5260 kPa, Fluid (supercritical or subcritical phases)	0.06948 W/m/K
284.89 K, 5290 kPa, Fluid (supercritical or subcritical phases)	0.08267 W/m/K
284.89 K, 5310 kPa, Fluid (supercritical or subcritical phases)	0.09324 W/m/K
284.89 K, 5320 kPa, Fluid (supercritical or subcritical phases)	0.09654 W/m/K
284.89 K, 5340 kPa, Fluid (supercritical or subcritical phases)	0.09916 W/m/K
284.89 K, 5360 kPa, Fluid (supercritical or subcritical phases)	0.08875 W/m/K
284.89 K, 5380 kPa, Fluid (supercritical or subcritical phases)	0.08399 W/m/K
284.89 K, 5400 kPa, Fluid (supercritical or subcritical phases)	0.07691 W/m/K
284.89 K, 5430 kPa, Fluid (supercritical or subcritical phases)	0.07429 W/m/K
284.89 K, 5460 kPa, Fluid (supercritical or subcritical phases)	0.07184 W/m/K
284.89 K, 5490 kPa, Fluid (supercritical or subcritical phases)	0.06955 W/m/K
284.89 K, 5530 kPa, Fluid (supercritical or subcritical phases)	0.06954 W/m/K
284.89 K, 5600 kPa, Fluid (supercritical or subcritical phases)	0.06952 W/m/K
284.89 K, 5610 kPa, Fluid (supercritical or subcritical phases)	0.06954 W/m/K
284.89 K, 5670 kPa, Fluid (supercritical or subcritical phases)	0.06864 W/m/K
284.89 K, 5780 kPa, Fluid (supercritical or subcritical phases)	0.06822 W/m/K
284.89 K, 5890 kPa, Fluid (supercritical or subcritical phases)	0.06866 W/m/K
284.89 K, 6170 kPa, Fluid (supercritical or subcritical phases)	0.06954 W/m/K
284.89 K, 6530 kPa, Fluid (supercritical or subcritical phases)	0.07045 W/m/K
284.89 K, 7030 kPa, Fluid (supercritical or subcritical phases)	0.07139 W/m/K
284.89 K, 7500 kPa, Fluid (supercritical or subcritical phases)	0.07332 W/m/K
284.89 K, 8190 kPa, Fluid (supercritical or subcritical phases)	0.07593 W/m/K
284.89 K, 8580 kPa, Fluid (supercritical or subcritical phases)	0.07756 W/m/K
284.89 K, 8590 kPa, Fluid (supercritical or subcritical phases)	0.07756 W/m/K
284.89 K, 9070 kPa, Fluid (supercritical or subcritical phases)	0.07866 W/m/K
284.89 K, 9530 kPa, Fluid (supercritical or subcritical phases)	0.07924 W/m/K
284.89 K, 9990 kPa, Fluid (supercritical or subcritical phases)	0.08043 W/m/K
284.89 K, 10010 kPa, Fluid (supercritical or subcritical phases)	0.08041 W/m/K
285.04 K, 5080 kPa, Fluid (supercritical or subcritical phases)	0.04457 W/m/K
285.04 K, 5100 kPa, Fluid (supercritical or subcritical phases)	0.04514 W/m/K
285.04 K, 5210 kPa, Fluid (supercritical or subcritical phases)	0.05584 W/m/K
285.04 K, 5270 kPa, Fluid (supercritical or subcritical phases)	0.06826 W/m/K
285.04 K, 5300 kPa, Fluid (supercritical or subcritical phases)	0.07918 W/m/K
285.04 K, 5340 kPa, Fluid (supercritical or subcritical phases)	0.09492 W/m/K
285.04 K, 5350 kPa, Fluid (supercritical or subcritical phases)	0.09641 W/m/K
285.04 K, 5370 kPa, Fluid (supercritical or subcritical phases)	0.09081 W/m/K
285.04 K, 5420 kPa, Fluid (supercritical or subcritical phases)	0.07925 W/m/K
285.04 K, 5490 kPa, Fluid (supercritical or subcritical phases)	0.07233 W/m/K
285.04 K, 5640 kPa, Fluid (supercritical or subcritical phases)	0.06952 W/m/K
285.04 K, 6040 kPa, Fluid (supercritical or subcritical phases)	0.06871 W/m/K and 0.0687 W/m/K
285.04 K, 6050 kPa, Fluid (supercritical or subcritical phases)	0.06846 W/m/K
285.04 K, 6140 kPa, Fluid (supercritical or subcritical phases)	0.06843 W/m/K
285.04 K, 6150 kPa, Fluid (supercritical or subcritical phases)	0.06861 W/m/K
